Measurements published in ChEMBL document CHEMBL3352628, “Stereochemical modification of geminal dialkyl substituents on pantothenamides alters antimicrobial activity” (Bioorg Med Chem Lett, 2014).
In brackets after ≈: the same amount, converted by molar mass. Activity calls are given as the source filed them. The calls are words filed in the database; no cut-off is given here.

Legend:
Staphylococcus aureus [1] = assay: Antimicrobial activity against oxacillin-susceptible Staphylococcus aureus ATCC 29213 after 18 hrs by microdilution broth method; format: functional; conditions: ATCC 29213, 18 h
HFF = assay: Cytotoxicity against HFF cells at 1 to 100 uM after 48 hrs by SYBR Safe DNA gel staining based assay; format: cell-based; conditions: human
Plasmodium falciparum [2] = assay: Antimicrobial activity against chloroquine-sensitive Plasmodium falciparum 3D7 ring stage parasite assessed as reduction in parasite proliferation after 96 hrs in presence of 50 uM pantothenate by SYBR Safe DNA gel staining based assay; format: functional, organism-based; conditions: 3D7, 96 h
Staphylococcus aureus [3] = assay: Antimicrobial activity against oxacillin-resistant Staphylococcus aureus 43300 at 500 uM after 18 hrs by microdilution broth method; format: functional, organism-based
Plasmodium falciparum [4] = assay: Antimicrobial activity against chloroquine-sensitive Plasmodium falciparum 3D7 ring stage parasite assessed as reduction in parasite proliferation after 96 hrs in presence of 1 uM pantothenate by SYBR Safe DNA gel staining based assay; format: functional, organism-based; conditions: 3D7, 96 h
Staphylococcus aureus [5] = assay: Antimicrobial activity against oxacillin-susceptible Staphylococcus aureus ATCC 29213 at 500 uM after 18 hrs by microdilution broth method; format: functional, organism-based
Staphylococcus aureus [6] = assay: Antimicrobial activity against oxacillin-resistant Staphylococcus aureus 43300 after 18 hrs by microdilution broth method; format: functional; conditions: Staphylococcus aureus, 43300, 18 h

SMILES	MIC (Staphylococcus aureus [1]) [µM]	Activity (HFF)	IC50 (Plasmodium falciparum [2]) [µM]	Activity (Staphylococcus aureus [3])	IC50 (Plasmodium falciparum [4]) [µM]	Activity (Staphylococcus aureus [5])	MIC (Staphylococcus aureus [6]) [µM]
C=CC[C@@](C)(CO)[C@@H](O)C(=O)NCCC(=O)NCCCCC	3.2 (≈ 1.01 µg/mL)	Non-toxic	13	inactive	2.4	inactive	3.2 (≈ 1.01 µg/mL)
C=CC[C@](C)(CO)[C@@H](O)C(=O)NCCC(=O)NCCCCC		Non-toxic			31		
